Patent publication US20240358015A1, “HERBICIDAL COMPOSITIONS” (Agrematch Ltd., priority 2021, published 2024)

Experiments:
Lolium multiflorum = assay: Growth-chamber post-emergence assay on additional weeds (Example 2); type: in vivo; details: 1000 g/ha; 13-day old plants; 3 days after application; scale 0-100
Experimental: (§1) Herbicidal activity of Compound 1 was determined by post-emergence application on 13-day old Echinochloa colonum, Lolium multiflorum and Solanum nigrum.
(§2) In each treatment, 3 pots, each containing about 5 plants, were sprayed using the same conditions as described above which are equivalent to 1000 g/ha. Herbicidal activity was assessed and scored 3 days after application by visual inspection of the weeds. Activity score is in the range of 0 to 100, where 0 represents no herbicidal activity like control plants and 100 represents the maximal herbicidal activity (i.e., total death of the plant). The obtained data is presented in Table 6 below per the activity score as described herein.

Solanum nigrum = assay: as above; type: in vivo; details: 1000 g/ha; 13-day old plants; 3 days after application; scale 0-100
Experimental: as §1, §2

Echinochloa colonum = assay: as above; type: in vivo; details: 1000 g/ha; 13-day old plants; 3 days after application; scale 0-100
Experimental: as §1, §2

T. vulgare = assay: Growth-chamber post-emergence assay on various weed species (Example 7); type: in vivo; details: 500 g/ha; 0.8% MIPA, 0.25% Genapol, 1% AGNIQUE, 0.05% Ca-LAS, 0.02% BSU, 0.05% Break-Thru
Experimental: (§3) Herbicidal activity of Compound 1 was determined by post-emergence application on various weed species. 8-14 day old plants (weeds) were grown at 16 hours/8 hours day/night cycles at 30° C./25° C., respectively. Leaf stage was typically 2-6.
(§4) In each treatment, 3 pots (either 7×7 or 8×12 cm), containing about 3-6 plants each, were sprayed using a VL-SET Paasche Airbrush with a 1-1.5 ml-solution containing 0.5-1.5 mg/ml of the tested compound, which is equivalent to about 500-1500 g/ha.
(§5) Damage assessment: Herbicidal activity was assessed and scored 3-4 days after application by visual inspection of the plants in comparison to plants treated with the formulation alone (with no active ingredient) as control. Activity score is in the range of 0 to 100, where 0 represents no herbicidal activity like control plants and 100 represents the maximal herbicidal activity (i.e., total death of the plant).

D. ferox = assay: as above; type: in vivo; details: 1500 g/ha; 0.8% MIPA, 0.25% Genapol, 2% HASTEN, 0.05% Break-Thru
Experimental: as §3, §4, §5

S. alba = assay: as above; type: in vivo; details: 500 g/ha; 0.8% MIPA, 0.25% Genapol, 1% AGNIQUE, 0.05% Ca-LAS, 0.02% BSU, 0.05% Break-Thru
Experimental: as §3, §4, §5

A. retroflexus = assay: as above; type: in vivo; details: 500 g/ha; 0.8% MIPA, 0.25% Genapol, 1% AGNIQUE, 0.05% Ca-LAS, 0.02% BSU, 0.05% Break-Thru
Experimental: as §3, §4, §5

Amaranthus palmeri [1] = assay: Growth-chamber post-emergence herbicidal assay (Example 2); type: in vivo
Experimental: Herbicidal activity was determined by post-emergence application on 8-day old plants (weeds) of the Amaranthus palmeri and Setaria viridis species that were grown at 16 hours/8 hours day/night cycles at 30° C./25° C., respectively. Leaf stage was typically 4-6 for A. palmeri and 3-4 for S. viridis.
In each treatment, 2-3 pots, each containing about 5 plants each (for Setaria viridis), and one 9-pack, containing about 9 plants (for Amaranthus palmeri), were sprayed using a VL-SET Paasche Airbrush with 0.3-1.5 ml solution containing 0.125-2 mg/ml of a tested compound, which is equivalent to about 125-2000 g/ha.
as §5
Formulation design: Compounds were tested on A. Palmeri in various formulations, and in varying concentrations for each of the tested formulations, in order to determine optimal conditions for its application and performance. Activity scores were determined as described hereinabove. Solubility scores were determined by visual inspection on a scale of 1-10, with 10 representing complete solubilization and 1 represents nullified solubilization.
Each of the obtained solution was then mixed with different adjuvants and applied at a rate equivalent to 500 g/ha for A. palmeri and 1000 g/ha for S. viridis. Herbicidal activity scores 3-4 days after application are presented Table 3 below.

L. multiflorum = assay: Growth-chamber post-emergence assay on various weed species (Example 7); type: in vivo, Lolium multiflorum; details: 1500 g/ha; 0.8% MIPA, 0.25% Genapol, 2% HASTEN, 0.05% Break-Thru
Experimental: as §3, §4, §5

A. palmeri = assay: as above; type: in vivo, Amaranthus palmeri; details: 0.05% Break-Thru, 3-4 days after application
Experimental: as §3, §4, §5

Setaria viridis = assay: Growth-chamber post-emergence assay, low application rates (Example 5); type: in vivo
Experimental: (§6) Herbicidal activity of Compound 1 was determined by post-emergence application on 8-day old plants (weeds) of the Amaranthus palmeri and Setaria viridis species that were grown at 16 hours/8 hours day/night cycles at 30° C./25° C., respectively. Leaf stage was typically 4-6 for A. palmeri and 3-4 for S. viridis.
(§7) In each treatment, between 1 to 3 pots (8×12 cm), containing about 6 Amaranthus palmeri or Setaria viridis plants, were sprayed using a VL-SET Paasche Airbrush with a 1 ml-solution containing 0.1-0.375 mg/ml of the tested compound, which is equivalent to about 100-375 g/ha.
as §5

Amaranthus palmeri [2] = assay: as above; type: in vivo
Experimental: as §6, §7, §5

[3] = 125 g/ha, 0.8% MIPA, 0.25% Genapol, 2% DASH EC
[4] = 125 g/ha, 0.8% MIPA, 2% DASH EC
[5] = 150 g/ha, 0.8% MIPA, 0.25% Genapol, 1% AGNIQUE, 0.05% Ca-LAS, 0.02% BSU
[6] = 150 g/ha, 0.8% MIPA, 0.25% Genapol, 2% HASTEN
[7] = 200 g/ha, 0.21% MIPA, 0.25% Genapol, 1% AGNIQUE, 0.05% Ca-LAS, 0.02% BSU
[8] = 200 g/ha, 0.8% MIPA, 0.25% Genapol, 1% AGNIQUE, 0.05% Ca-LAS, 0.02% BSU
[9] = 375 g/ha, 0.8% MIPA, 0.25% Genapol, 1% AGNIQUE, 0.05% Ca-LAS, 0.02% BSU
[10] = 375 g/ha, 0.8% MIPA, 2% TWEEN20, 1% AGNIQUE, 0.05% Ca-LAS, 0.02% BSU, 0.05% Break-Thru, 3-4 days after application, scale 0-100

O=C(O)c1cc(O)c2c(c1)C(=O)c1cccc(O)c1C2=O [Compound 1, Rhein]
Activity Score (Lolium multiflorum): 50 | Activity Score (Solanum nigrum): 60 | Activity Score (Echinochloa colonum): 70 | Herbicidal activity score (T. vulgare): 10 | Herbicidal activity score (D. ferox): 95 | Herbicidal activity score (S. alba): 80 | Herbicidal activity score (A. retroflexus): 85 | Herbicidal activity score (Amaranthus palmeri [1]; 500 g/ha, 0.5 mg/ml in 0.007% Ammonium hydroxide, 0.25% Adsee, 3-4 days after application): 30 | Herbicidal activity score (Amaranthus palmeri [1]; 500 g/ha, 0.5 mg/ml in 0.007% Ammonium hydroxide, 0.25% Genapol X-080, 3-4 days after application): 50 | Herbicidal activity score (Amaranthus palmeri [1]; 500 g/ha, 0.5 mg/ml in 0.007% Ammonium hydroxide, 0.7% Sodium Lauryl Ether sulfate, 3-4 days after application): 85 | Herbicidal activity score (Amaranthus palmeri [1]; 500 g/ha, 0.5 mg/ml in 0.007% Ammonium hydroxide, 1% AGNIQUE, 0.05% Ca-LAS, 0.02% BSU, 3-4 days after application): 70 | Herbicidal activity score (Amaranthus palmeri [1]; 500 g/ha, 0.5 mg/ml in 0.007% Ammonium hydroxide, 2% Tween 20, 3-4 days after application, scale 0-100): 60 | Herbicidal activity score (Amaranthus palmeri [1]; 500 g/ha, 0.5 mg/ml in 0.019% MIPA, 0.25% Adsee, 3-4 days after application): 80 | Herbicidal activity score (Amaranthus palmeri [1]; 500 g/ha, 0.5 mg/ml in 0.019% MIPA, 0.25% Genapol X-080, 3-4 days after application): 70 | Herbicidal activity score (Amaranthus palmeri [1]; 500 g/ha, 0.5 mg/ml in 0.019% MIPA, 0.7% Sodium Lauryl Ether sulfate, 3-4 days after application): 90 | Herbicidal activity score (Amaranthus palmeri [1]; 500 g/ha, 0.5 mg/ml in 0.019% MIPA, 1% AGNIQUE, 0.05% Ca-LAS, 0.02% BSU, 3-4 days after application): 80 | Herbicidal activity score (Amaranthus palmeri [1]; 500 g/ha, 0.5 mg/ml in 0.019% MIPA, 2% Tween 20, 3-4 days after application): 95 | Activity Score (Amaranthus palmeri [1]; 500 g/ha, 2% TWEEN 20, 5 mM MIPA, 1% AGNIQUE, 0.05% Ca-LAS, 0.02% BSU, 0.05% Break-Thru): 95 | Activity Score (Amaranthus palmeri [1]; 1000 g/ha, 1% TWEEN 80, 0.05M Tris buffer pH 8, 0.05% Break-Thru, 3-4 days after application, scale 0-100): 100 | Activity Score (Amaranthus palmeri [1]; 1500 g/ha, 4% TWEEN 20, 0.05M Tris buffer pH 8, 0.05% Break-Thru): 95 | Activity Score (Amaranthus palmeri [1]; 2000 g/ha, 1% TWEEN 80, 0.05M Tris buffer pH 8, 0.05% Break-Thru): 95 | Herbicidal activity score (L. multiflorum): 50 | Herbicidal activity score (A. palmeri; 500 g/ha, 0.8% MIPA, 0.25% Genapol, 1% AGNIQUE, 0.05% Ca-LAS, 0.02% BSU, scale 0-100): 100 | Herbicidal activity score (A. palmeri; 750 g/ha, 0.2% MIPA, 2% TWEEN20, 1% AGNIQUE, 0.05% Ca-LAS, 0.02% BSU): 100 | Herbicidal activity score (A. palmeri; 1500 g/ha, 0.8% MIPA, 0.25% Genapol, 2% HASTEN): 100 | Herbicidal activity score (Setaria viridis; [3]): 23 | Herbicidal activity score (Setaria viridis; [4]): 43 | Herbicidal activity score (Setaria viridis; [5]): 70 | Herbicidal activity score (Setaria viridis; [6]): 65 | Herbicidal activity score (Setaria viridis; [7]): 65 | Herbicidal activity score (Setaria viridis; [8]): 88 | Herbicidal activity score (Setaria viridis; [9]): 78 | Herbicidal activity score (Setaria viridis; [10]): 75 | Herbicidal activity score (Amaranthus palmeri [2]; 100 g/ha, 0.8% MIPA, 0.25% Genapol, 2% DASH EC): 90 | Herbicidal activity score (Amaranthus palmeri [2]; [3]): 93 | Herbicidal activity score (Amaranthus palmeri [2]; [4]): 65 | Herbicidal activity score (Amaranthus palmeri [2]; [5]): 85 | Herbicidal activity score (Amaranthus palmeri [2]; [6]): 85 | Herbicidal activity score (Amaranthus palmeri [2]; [7]): 93 | Herbicidal activity score (Amaranthus palmeri [2]; [8]): 98 | Herbicidal activity score (Amaranthus palmeri [2]; 250 g/ha, 0.02% MIPA, 2% TWEEN20, 2% AGNIQUE, 0.1% Ca-LAS, 0.04% BSU, 0.05% Break-Thru): 90 | Herbicidal activity score (Amaranthus palmeri [2]; [9]): 97 | Herbicidal activity score (Amaranthus palmeri [2]; [10]): 100
